Measured values from US20110092463A1, “COMBINATION FOR USE IN THE TREATMENT OF INFLAMMATORY DISORDERS” (priority 2008, published 2011).

System: human macrophage cell-line MonoMac-6 (MM6)
Experiment: PMA-induced release of tumor necrosis factor (TNF) from MonoMac-6 cells, Human TNF-α ELISA
Assay type: cell-based
Details: n=2; for TNF concentration as % of the untreated PMA-stimulated control MM6 cells: 48 hours, PMA 10 ng/mL five hours, mean; for mean TNF concentration after PMA stimulation: 48 hours treatment, then PMA 10 ng/mL five hours, untreated control 75.3 pg/mL
Description: Cells from the human macrophage cell-line MonoMac-6 (MM6) (Ziegler-Heitbrock et al, Int. J. Cancer, 41, 456 (1988)) were cultured (37° C./5% CO2) in RPMI-1640 medium supplemented with 1 mM sodium pyruvate, 1× nonessential amino acids, 10 μg/mL insulin, 1 mM oxalacetic acid, 100 units/mL penicillin, 100 μg/mL streptomycin and 10% (v/v) fetal bovine serum. At the start of the experiment, MM6 cells were seeded in 96-well plates at a density of 1×10^5 cells/mL (200 μL per well). The MM6 cells were treated (incubation conditions as above) with indicated final concentrations of the test drugs for 48 hours prior stimulation with phorbol-12-myristate-13-acetate (PMA; Sigma-Aldrich, Stockholm, Sweden) followed by measurement of PMA-induced release of tumor necrosis factor (TNF) (see below for details). To stimulate formation and release of TNF, the MM6 cells were incubated (37° C./5% CO2) for five hours (in RPMI-1640 with 10% fetal bovine serum with supplements as above) with PMA at a final concentration of 10 ng/mL. After spinning down the cells after the different MM6 incubations/stimulations (see above and below), the concentrations of TNF in the supernatants were quantitated using Human TNF-α ELISA Kit from Mabtech (Nacka, Sweden) according to instructions supplied by the manufacturer. Stock solutions of pemirolast (potassium salt; purchased from American Custom Chemicals Corporation, San Diego, USA) and losartan (potassium salt; purchased from AK Scientific, Inc., Mountain View, Calif., USA) were made in sterile saline. […] However, after five hours of PMA stimulation, the mean TNF concentration in the supernatants of untreated MM6 cells was 75.3 pg/mL (n=2).

[1] = 0.1 μM of each drug (alone or in combination)
[2] = 1 μM of each drug (alone or in combination)
[3] = 10 μM of each drug (alone or in combination)
[4] = 100 μM of each drug (alone or in combination)

Structure (SMILES) | TNF concentration as % of the untreated PMA-stimulated control MM6 cells [1] | mean TNF concentration after PMA stimulation (0.1 μM test drug) | TNF concentration as % of the untreated PMA-stimulated control MM6 cells [2] | mean TNF concentration after PMA stimulation (1 μM test drug) | TNF concentration as % of the untreated PMA-stimulated control MM6 cells [3] | mean TNF concentration after PMA stimulation (10 μM test drug) | TNF concentration as % of the untreated PMA-stimulated control MM6 cells [4] | mean TNF concentration after PMA stimulation (100 μM test drug)
CCCCc1nc(Cl)c(CO)n1Cc1ccc(-c2ccccc2-c2nn[nH]n2)cc1 [losartan] | 98% | 73.8 pg/mL | 90% | 67.5 pg/mL | 99% | 74.5 pg/mL | 119% | 89.8 pg/mL
Cc1cccn2c(=O)c(-c3nnn[nH]3)cnc12 [pemirolast] | 88% | 66.5 pg/mL | 85% | 64.0 pg/mL | 72% | 54.3 pg/mL | 96% | 72.2 pg/mL
